According to patent US20240246980A1, “MODULATORS OF MAS-RELATED G-PROTEIN RECEPTOR D AND RELATED PRODUCTS AND METHODS” (Escient Pharmaceuticals, Inc., priority 2022, published 2024):

target: human MRGPRD (Homo sapiens, UniProt Q8TDS7); assay: MRGPRD antagonist activity, IP-One HTRF assay in CHO cells stably expressing human MRGPRD (versus 100 μM β-Alanine agonist); format: cell-based
Outline: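 Cells (20,000/well, plated overnight) received antagonist and agonist in buffer with 5.7 mM Tris-HCl, 43 mM NaCl and 50 mM LiCl at pH 8. Incubation ran 1 h at 37 °C, then 1 h at room temperature, before IP-1 HTRF detection. IC50 was fitted from the HTRF ratio, and percent antagonism was taken relative to the maximum efficacy response, given as averages with SEM.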

human MRGPRD, sequence (Q8TDS7 whole entry): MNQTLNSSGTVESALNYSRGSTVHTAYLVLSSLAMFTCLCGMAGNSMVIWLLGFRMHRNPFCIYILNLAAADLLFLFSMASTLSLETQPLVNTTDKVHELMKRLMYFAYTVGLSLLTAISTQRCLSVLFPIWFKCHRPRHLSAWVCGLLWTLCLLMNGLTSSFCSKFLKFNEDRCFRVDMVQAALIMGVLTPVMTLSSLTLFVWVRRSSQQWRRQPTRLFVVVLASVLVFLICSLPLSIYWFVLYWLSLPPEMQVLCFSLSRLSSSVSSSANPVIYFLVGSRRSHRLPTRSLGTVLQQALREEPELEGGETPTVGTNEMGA

COc1cccc(-c2nc(C3CCCN(C(=O)Cc4cccc(F)c4)C3)n3ccccc23)c1 (centres unmarked) [Compound 12-4] and COc1cccc(-c2nc([C@@H]3CCCN(C(=O)Cc4cccc(F)c4)C3)n3ccccc23)c1 [Compound 12-13] fall in the same range of IC50: 100 to 500 nM for the first, 100 to 500 nM for the second.

COc1cccc(-c2nc(C3CCCN(C(=O)c4ccccc4F)C3)n3ccccc23)c1 (centres unmarked) [Compound 12-5] and COc1cccc(-c2nc(C3CCCN(C(=O)c4ccc(C)cc4F)C3)n3ccccc23)c1 (centres unmarked) [Compound 12-7] fall in the same range of IC50: 500 to 1000 nM for the first, 500 to 1000 nM for the second.

First: COc1cccc(-c2nc(C3CCCN(C(=O)c4cccc(F)c4)C3)n3ccccc23)c1 (centres unmarked) [Compound 12-6]
Second: COc1cccc(-c2nc([C@@H]3CCCN(C(=O)c4cccc(F)c4)C3)n3ccccc23)c1 [Compound 12-14]
The IC50 of the first is lower: 100 to 500 nM for the first, 500 to 1000 nM for the second.

COc1cccc(-c2nc(C3CCCN(C(=O)c4ccc(C)cc4C)C3)n3ccccc23)c1 (centres unmarked) [Compound 12-8] and COc1cccc(-c2nc(C3CCCN(C(=O)c4ccc(F)cc4C)C3)n3ccccc23)c1 (centres unmarked) [Compound 12-10] fall in the same range of IC50: 1000 to 3000 nM for the first, 1000 to 3000 nM for the second.

COc1cccc(-c2nc(C3CCCN(C(=O)c4ccc(OC)cc4C)C3)n3ccccc23)c1 (centres unmarked) [Compound 12-9] and COc1cccc(-c2nc(C3CCCN(C(=O)c4ccc(F)cc4F)C3)n3ccccc23)c1 (centres unmarked) [Compound 12-11] fall in the same range of IC50: 500 to 1000 nM for the first, 500 to 1000 nM for the second.

Compared with COc1cccc(-c2nc(C3CCCN(C(=O)c4ccc(F)c(F)c4)C3)n3ccccc23)c1 (centres unmarked) [Compound 12-12], COc1cccc(-c2nc([C@H]3CCCN(C(=O)c4cccc(F)c4)C3)n3ccccc23)c1 [Compound 12-15] is lower in IC50: 500 to 1000 nM for the first, 100 to 500 nM for the second.

First: COc1cccc(-c2nc([C@H]3CCCN(C(=O)Cc4cccc(F)c4)C3)n3ccccc23)c1 [Compound 12-16]
Second: COc1cccc(-c2nc(C3CCCN(S(=O)(=O)Cc4cccc(F)c4)C3)n3ccccc23)c1 (centres unmarked) [Compound 16-4]
The IC50 of the first is higher: 1000 to 3000 nM for the first, 100 to 500 nM for the second. The second is the more potent here.

COc1cccc(-c2nc(C3CCCN(C(=O)Nc4ccccc4F)C3)n3c(OC)cccc23)c1 (centres unmarked) [Compound 13-1, N-(2-fluorophenyl)-3-(5-methoxy-1-(3-methoxyphenyl)imidazo[1,5-a]pyridin-3-yl)piperidine-1-carboxamide] and COc1cccc(-c2nc(C3CCCN(C(=O)Nc4ccccc4F)C3)n3c(C)cccc23)c1 (centres unmarked) [Compound 17-3] fall in the same range of IC50: 100 to 500 nM for the first, 100 to 500 nM for the second.

COc1cccc(-c2nc(C3CCCN(C(=O)c4ccccc4OC)C3)n3c(OC)cccc23)c1 (centres unmarked) [Compound 14-1, (3-(5-methoxy-1-(3-methoxyphenyl)imidazo[1,5-a]pyridin-3-yl)piperidin-1-yl)(2-methoxyphenyl)methanone] and COc1cccc(-c2nc(C3CCCN(C(=O)Cc4ccccc4OC)C3)n3c(OC)cccc23)c1 (centres unmarked) [Compound 15-1, 1-(3-(5-methoxy-1-(3-methoxyphenyl)imidazo[1,5-a]pyridin-3-yl)piperidin-1-yl)-2-(2-methoxyphenyl)ethan-1-one] fall in the same range of IC50: 500 to 1000 nM for the first, 500 to 1000 nM for the second.

Compared with COc1cccc(-c2nc(C3CCCN(C(=O)c4cc(OC)c(OC)c(OC)c4)C3)n3c(OC)cccc23)c1 (centres unmarked) [Compound 14-2], COc1cccc(-c2nc(C3CCCN(C(=O)c4ccc(OC)c(OC)c4)C3)n3c(OC)cccc23)c1 (centres unmarked) [Compound 14-5] is lower in IC50: greater than 3000 nM for the first, 100 to 500 nM for the second. The second is the more potent here.

Compared with COc1cccc(C(=O)N2CCCC(c3nc(-c4cccc(OC)c4)c4cccc(OC)n34)C2)c1 (centres unmarked) [Compound 14-3], COc1ccc(C(=O)N2CCCC(c3nc(-c4cccc(OC)c4)c4cccc(OC)n34)C2)cc1 (centres unmarked) [Compound 14-4] is lower in IC50: greater than 3000 nM for the first, 100 to 500 nM for the second. The second is the more potent here.

First: COc1cccc(-c2nc(C3CCCN(S(=O)(=O)c4ccccc4F)C3)n3ccccc23)c1 (centres unmarked) [Compound 16-1]
Second: COc1cccc(-c2nc(C3CCCN(S(=O)(=O)Cc4ccccc4F)C3)n3ccccc23)c1 (centres unmarked) [Compound 16-5]
The IC50 of the first is lower: 500 to 1000 nM for the first, greater than 3000 nM for the second. The first is the more potent here.

First: COc1cccc(-c2nc(C3CCCN(S(=O)(=O)c4ccc(F)cc4)C3)n3ccccc23)c1 (centres unmarked) [Compound 16-3]
Second: COc1cccc(-c2nc([C@@H]3CCCN(S(=O)(=O)c4cccc(F)c4)C3)n3ccccc23)c1 [Compound 16-7]
The IC50 of the first is higher: greater than 3000 nM for the first, 100 to 500 nM for the second.

Compared with COc1cccc(-c2nc(C3CCCN(S(=O)(=O)Cc4ccc(F)cc4)C3)n3ccccc23)c1 (centres unmarked) [Compound 16-6], COc1cccc(-c2nc([C@H]3CCCN(S(=O)(=O)Cc4ccc(F)cc4)C3)n3ccccc23)c1 [Compound 16-8] is higher in IC50: 100 to 500 nM for the first, 1000 to 3000 nM for the second. The first is the more potent here.

First: COc1cccc(-c2nc([C@@H]3CCCN(S(=O)(=O)Cc4ccc(F)cc4)C3)n3ccccc23)c1 [Compound 16-9]
Second: COc1cccc(-c2nc([C@H]3CCCN(S(=O)(=O)c4cccc(F)c4)C3)n3ccccc23)c1 [Compound 16-10]
The IC50 of the first is lower: less than 100 nM for the first, 1000 to 3000 nM for the second. The first is the more potent here.

Compared with COc1cccc(-c2nc(C3CCCN(C(=O)Nc4ccccc4F)C3)n3cccc(C)c23)c1 (centres unmarked) [Compound 17-1, N-(2-fluorophenyl)-3-(1-(3-methoxyphenyl)-8-methylimidazo[1,5-a]pyridin-3-yl)piperidine-1-carboxamide], COc1cccc(-c2nc(C3CCCN(C(=O)Nc4ccccc4F)C3)n3cccc(OC)c23)c1 (centres unmarked) [Compound 19-1] is higher in IC50: 100 to 500 nM for the first, greater than 3000 nM for the second.

Compared with COc1cccc(-c2nc(C3CCCN(C(=O)Nc4ccccc4F)C3)n3ccc(C)cc23)c1 (centres unmarked) [Compound 17-2], COc1cccc(-c2nc(C3CCCN(C(=O)Nc4ccccc4F)C3)n3ccc(OC)cc23)c1 (centres unmarked) [Compound 19-2] is higher in IC50: 500 to 1000 nM for the first, greater than 3000 nM for the second. The first is the more potent here.

First: COc1cccc(-c2nc(C3CCCN(C(=O)Nc4ccccc4F)C3)n3cc(C)ccc23)c1 (centres unmarked) [Compound 18-1, N-(2-fluorophenyl)-3-(1-(3-methoxyphenyl)-6-methylimidazo[1,5-a]pyridin-3-yl)piperidine-1-carboxamide]
Second: COc1cccc(-c2nc(C3CCCN(C(=O)Nc4ccccc4F)C3)n3cc(OC)ccc23)c1 (centres unmarked) [Compound 19-3, N-(2-fluorophenyl)-3-(6-methoxy-1-(3-methoxyphenyl)imidazo[1,5-a]pyridin-3-yl)piperidine-1-carboxamide]
The IC50 of the first is lower: 100 to 500 nM for the first, 1000 to 3000 nM for the second. The first is the more potent here.

First: COc1cccc(-c2nn([C@@H]3CCCN(C(=O)Nc4ccc(N(C)C)cc4)C3)c3ncccc23)c1 [Compound 20-1, (R)—N-(4-(dimethylamino)phenyl)-3-(3-(3-methoxyphenyl)-1H-pyrazolo[3,4-b]pyridin-1-yl)piperidine-1-carboxamide]
Second: COc1cccc(-c2nn([C@H]3CCCN(C(=O)Nc4ccc(N(C)C)cc4)C3)c3ncccc23)c1 [Compound 20-4]
The IC50 of the first is lower: less than 100 nM for the first, 1000 to 3000 nM for the second.

First: COc1cccc(-c2nn([C@@H]3CCCN(C(=O)Nc4cccc(N(C)C)c4)C3)c3ncccc23)c1 [Compound 20-2]
Second: COc1cccc(-c2nn([C@H]3CCCN(C(=O)Nc4cccc(N(C)C)c4)C3)c3ncccc23)c1 [Compound 20-3]
The IC50 of the first is lower: less than 100 nM for the first, 1000 to 3000 nM for the second.

First: COc1cccc(-c2nc([C@@H]3CCN(C(=O)Nc4ccccc4F)C3)n3ccccc23)c1 [Compound 21-1, (R)—N-(2-fluorophenyl)-3-(1-(3-methoxyphenyl)imidazo[1,5-a]pyridin-3-yl)pyrrolidine-1-carboxamide]
Second: COc1cccc(-c2nc([C@H]3CCN(C(=O)Nc4ccccc4F)C3)n3ccccc23)c1 [Compound 21-2]
The IC50 of the first is lower: 500 to 1000 nM for the first, 1000 to 3000 nM for the second.

CNC(=O)N1CCC[C@H]1c1nc(-c2cccc(OC)c2)c2ccccn12 [Compound 21-3] and CNC(=O)N1CCC[C@@H]1c1nc(-c2cccc(OC)c2)c2ccccn12 [Compound 21-4] cannot be ordered by IC50: greater than 3000 nM for the first, greater than 3000 nM for the second.

COc1cccc(-c2nc([C@@H]3CCCN3C(=O)Nc3ccc(N(C)C)cc3)n3ccccc23)c1 [Compound 21-5] and COc1cccc(-c2nc([C@H]3CCCN3C(=O)Nc3ccc(N(C)C)cc3)n3ccccc23)c1 [Compound 21-6] cannot be ordered by IC50: greater than 3000 nM for the first, greater than 3000 nM for the second.

First: COc1cccc(-c2nc(C3CCCN3C(=O)Nc3ccccc3F)n3ccccc23)c1 (centres unmarked) [Compound 22-1, N-(2-fluorophenyl)-2-(1-(3-methoxyphenyl)imidazo[1,5-a]pyridin-3-yl)pyrrolidine-1-carboxamide]
Second: COc1cccc(-c2nc(C3CN(C(=O)Nc4cccc(N(C)C)c4)C3)n3ccccc23)c1 [Compound 23-1, N-(3-(dimethylamino)phenyl)-3-(1-(3-methoxyphenyl)imidazo[1,5-a]pyridin-3-yl)azetidine-1-carboxamide]
The IC50 of the first is lower: 1000 to 3000 nM for the first, greater than 3000 nM for the second.

First: COc1cccc(-c2nc(C3CN(C(=O)Nc4ccc(N(C)C)cc4)C3)n3ccccc23)c1 [Compound 23-2]
Second: COc1cccc(-c2nc(C3CCCN(C(=O)Nc4ccc(N(C)C)cc4)C3)c3ccccn23)c1 (centres unmarked) [Compound 26-1, N-(4-(dimethylamino)phenyl)-3-(3-(3-methoxyphenyl)imidazo[1,5-a]pyridin-1-yl)piperidine-1-carboxamide]
The IC50 of the first is higher: greater than 3000 nM for the first, less than 100 nM for the second. The second is the more potent here.

Compared with COc1cccc(-c2nn(-c3cccc(C(=O)Nc4ccc(N(C)C)cc4)c3)c3ncccc23)c1 [Compound 24-1, N-(4-(dimethylamino)phenyl)-3-(3-(3-methoxyphenyl)-1H-pyrazolo[3,4-b]pyridin-1-yl)benzamide], COc1cccc(-c2nn(-c3cccc(C(=O)Nc4cccc(N(C)C)c4)c3)c3ncccc23)c1 [Compound 24-2] is higher in IC50: 100 to 500 nM for the first, 500 to 1000 nM for the second. The first is the more potent here.

Work on COc1cccc(-c2nc(-c3ccc(C(=O)Nc4ccc(N(C)C)cc4)s3)n3ccccc23)c1 [Compound 25-1, N-(4-(dimethylamino)phenyl)-5-(1-(3-methoxyphenyl)imidazo[1,5-a]pyridin-3-yl)thiophene-2-carboxamide] yielded an IC50 of 1000 to 3000 nM.
